# Results published in publication PMC6678097, “Machilin A Inhibits Tumor Growth and Macrophage M2 Polarization Through the Reduction of Lactic Acid” (Cancers, 2019).
# Assays:
# [1] = test system: HT29 colorectal cancer cells; assay: Measurement of intracellular ATP; format: cell-based, human; details: machilin A 30 μM, hypoxia
# Method: Intracellular ATP concentration was measured using an ATP bioluminescent somatic cell assay kit (Sigma-Aldrich) as previously described. A total of 1 × 10^6 cells were trypsinized and resuspended in ultrapure water. Luminescence was measured using a spectrofluometer (Spectramax M2, Molecular Devices, CA, USA) immediately after the addition of an ATP enzyme mix to the cell suspension.
# HCC-95 = assay: Cell viability, MTT assay; format: cell-based; details: Homo sapiens, HCC95, normoxic
# Method: (§1) Human colon cancer cells (WiDr, DLD-1, RKO, and HT29) and murine Lewis lung carcinoma (LLC) cells were purchased from the American Type Culture Collection (Manassas, VA, USA). Human breast cancer MCF7 cells, human hepatocellular carcinoma cells (Huh-7, HepG2, and Hep3B), and human lung cancer cells (HCC-95 and NCI-H1793) were provided by the Korean Cell Line Bank (Seoul, Korea). The HCC-95 and NCI-H1793 cells were grown in a Roswell park memorial institute medium (RPMI) 1640 medium (HyClone^TM; GE Healthcare, Chicago, IL, USA). All other cells were grown in Dulbecco’s modified eagle medium (DMEM) supplemented with L-glutamine (200 mg/L), 10% (v/v) heat-inactivated fetal bovine serum (FBS; Sigma-Aldrich, St. Louis, MO, USA), and antibiotics (100 U/mL penicillin and 100 μg/mL streptomycin; Thermo Fisher Scientific, Waltham, MA, USA) in a humidified incubator at 37 °C and with 5% CO2 before the experiments. For induction of hypoxia condition (1% oxygen), the cells were cultured were cultured in the mixture of 94% nitrogen and 5% CO2/air at 37 °C for 24 h in cell culture incubator. Cytotoxicity of MA was evaluated using an MTT assay. Briefly, cells were incubated in 24-well plates with specified concentrations of MA for 24 or 48 h. Then, MTT solution (2.0 mg/mL) was added to each well. After 4 h of incubation at 37 °C and 5% CO2 in a cell culture incubator, the conditioned media were removed, and the amount of formazan crystals formed in living cells was estimated by measuring the absorbance at 540 nm using a microplate reader (Spectramax M2; Molecular Devices, CA, USA). The respective percentages of living cells were compared with a control treatment.
# WiDr = assay: Cell viability, MTT assay; format: cell-based; details: Homo sapiens, normoxic
# Method: as §1
# MCF-7 = assay: Cell viability, MTT assay; format: cell-based; details: Homo sapiens, MCF7, normoxic
# Method: as §1
# NCI-H1793 = assay: Cell viability, MTT assay; format: cell-based; details: Homo sapiens, normoxic
# Method: as §1
# Huh7 = assay: Cell viability, MTT assay; format: cell-based; details: Homo sapiens, Huh-7, normoxic
# Method: as §1
# HepG2 = assay: Cell viability, MTT assay; format: cell-based; details: Homo sapiens, normoxic
# Method: as §1
# RKO = assay: Cell viability, MTT assay; format: cell-based; details: Homo sapiens, normoxic
# Method: as §1
# DLD-1 = assay: Cell viability, MTT assay; format: cell-based; details: Homo sapiens, normoxic
# Method: as §1
# HT29 colon cancer cells = assay: Colony formation assay; format: cell-based, human; details: three weeks
# Method: (§2) Base agar (0.6%) was placed at the bottom of the 6-well culture plate. After 30 min at room temperature, top agar (0.4%) mixed with HT29 (1 × 10^4 cells) or Hep3B (1 × 10^4 cells) cells was added to the base agar. HT29 and Hep3B cells were incubated at 37 °C and 5% CO2 for three weeks. The colonies were stained using 0.005% crystal violet for 1 h after which they were photographed and counted.
# Hep3B liver cancer cells = assay: Colony formation assay; format: cell-based, human; details: three weeks
# Method: as §2
# LDHA = LDHA expression, western blot; format: cell-based, human; details: normoxic and hypoxic conditions
# Method: Total protein was extracted from each cell using 1% NP-40 lysis buffer (150 mM NaCl, 10 mM HEPES (pH 7.45), 1% NP-40, 5 mM Na pyrophosphate, 5 mM NaF, 2 mM Na3VO4) containing protease inhibitor cocktail tablets (Roche, Basel, Switzerland). Equal amounts (20 μg) of protein from each sample were fractionated using SDS-PAGE and the protein was then transferred onto nitrocellulose membranes (Hybond ECL; GE Healthcare, Chicago, IL, USA) using electrophoresis. The membranes were blocked for 1 h at room temperature using 5% non-fat dry milk and were then incubated with primary antibodies specific to the target protein at 4 °C overnight. The membranes were washed three times, and incubated with the respective secondary antibodies conjugated with horseradish peroxidase. The specific bands of targeted proteins were detected using ECL Plus (GE Healthcare, Chicago, IL, USA).
# Hep3B = assay: Cell viability, MTT assay; format: cell-based, human
# Method: as §1
# HT29 = assay: Cell viability, MTT assay; format: cell-based, human
# Method: as §1
# [2] = test system: RAW264.7 macrophage cells; assay: Viability of macrophage cells, MTT; format: cell-based; details: direct treatment, 24 h
# Method: Figure S10. The viabilities of HUVECs and RAW264.7 cells on MA. (A) HUVECs were treated with indicated concentration of machilin A for 24 h. The viabilities of cells were evaluated by MTT assay.
# (B ) HUVECs seeded to the Matrigel-coated wells treated with machilin A for 24 h. ( C) Raw 264.7 macrophage cells were treated with indicated concentration of machilin A for 24 h. The viabilities of cells were evaluated by MTT assay.
# (1 picture or pasted object on this page, not shown here)
# [3] = biological target: T1, purified recombinant human LDHA (rhLDHA) (Homo sapiens, UniProt P00338); assay: NADH binding assay (LDHA binding to Cibacron Blue 3GA agarose); details: machilin A 10 and 100 μM; NADH positive control
# T1 construct: made in house
# Method: An NADH binding assay was performed as described previously. The NADH binding ability of LDHA was determined by measuring the affinity of LDHA to agarose-immobilized Cibacron Blue 3GA, which resembles NADH. Then, 400 ng of purified recombinant human LDHA (rhLDHA) was incubated with NADH or MA, followed by incubation with 30 µL of Cibacron Blue agarose at 4 °C for 2 h. After a washing step with 20 mM Tris-HCl (pH 8.6), LDHA bound to beads was eluted in PBS using a sodium dodecyl sulfate (SDS) gel running buffer and was then subjected to–SDS-polyacrylamide gel electrophoresis (SDS-PAGE) and western blotting. Standardized amounts of protein were used in each reaction.
# LDHB = LDHB (Homo sapiens, UniProt P07195); assay: LDHB activity (data not shown); format: biochemical; details: concentrations of up to 500 μM
# [4] = test system: human liver cytochrome P450 2B6; details: cited from earlier work
# [5] = hypoxic and normoxic conditions, 48 h
# Sequence of LDHB (P07195 whole entry, species assumed): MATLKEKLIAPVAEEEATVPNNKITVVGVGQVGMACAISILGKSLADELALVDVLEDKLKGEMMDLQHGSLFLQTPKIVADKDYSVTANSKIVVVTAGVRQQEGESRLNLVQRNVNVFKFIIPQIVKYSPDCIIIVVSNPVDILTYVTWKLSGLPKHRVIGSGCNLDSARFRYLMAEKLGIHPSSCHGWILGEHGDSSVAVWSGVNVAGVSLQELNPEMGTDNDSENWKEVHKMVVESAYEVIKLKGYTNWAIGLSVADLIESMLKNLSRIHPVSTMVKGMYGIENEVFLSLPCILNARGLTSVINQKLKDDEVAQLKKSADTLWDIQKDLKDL
compound,measurement,setting,value
"C[C@H](Cc1ccc2c(c1)OCO2)[C@@H](C)Cc1ccc2c(c1)OCO2 [MA, bis(3,4-methylenedioxy)-8,8’-lignan]",increase of adenosine triphosphate (ATP) synthesis in hypoxic condition,[1],significantly reduced
same,IC50,HCC-95,228 ± 13.9 µM
same,IC50,WiDr,17.2 ± 5.75 µM
same,IC50,MCF-7,217 ± 12.9 µM
same,IC50,NCI-H1793,96.7 ± 5.32 µM
same,IC50,Huh7,198 ± 26.7 µM
same,IC50,HepG2,156 ± 23.2 µM
same,IC50,RKO,192 ± 15.2 µM
same,IC50,DLD-1,423 ± 17.6 µM
same,number of surviving colonies,HT29 colon cancer cells,significantly reduced
same,number of surviving colonies,Hep3B liver cancer cells,significantly reduced
same,expression of LDHA,LDHA,not affected
same,IC50,"Hep3B; Homo sapiens, normoxic",140 ± 8.55 µM
same,growth of cells,Hep3B; [5],substantially inhibited the growth
same,IC50,"HT29; Homo sapiens, HT-29, normoxic",107 ± 4.66 µM
same,growth of cells,HT29; [5],substantially inhibited the growth
same,growth of RAW264.7 macrophage cells,[2],did not directly inhibit
same,LDHA binding to Cibacron Blue Agarose beads (NADH mimic),[3],prohibited LDHA binding
same,effect on LDHB activity,LDHB,did not affect LDHB activity
same,inhibitory effect on drug metabolism,[4],selective inhibitory effect
